Assays:
Neuro2a cells [1] = assay type: cell-based, murine; conditions: saponin alone, 4 μg/mL
Text: FIGS. 6A and 6B show cell viability tests upon AG1856-mediated delivery of GFP-minicircle-DNA- or RIP-minicircle-DNA-bearing nanoplexes.
Saporin and dianthin are cytotoxic proteins. If the transfection is successful, the transfected cells will die.
The curves depicted in FIG. 6A represent the results of the following measurements: […]

female NMRI nu/nu mice = experiment: Chronic toxicity (tolerability) study of nanoplasmids (NP) plus AG1856 in vivo; conditions: 90 μg per mouse
Procedure: This study was performed to evaluate the tolerability of combined treatment of nanoplasmids (NP) and AG1856 in Naval Medical Research Institute (NMRI) nu/nu mice.
For the study, female NMRI nu/nu mice were used. Animals were treated with NP+AG1856 at doses of 50 and 90 μg/mouse respectively and after animal recovery in a second round at same doses.

Neuro2a cells [2] = experiment: Cell viability test via impedance measurement (iCELLigence); assay type: cell-based, murine
Procedure: The impedance (alternating current resistance) at the well bottom as real-time cell viability measure of adherent cells was determined by the iCELLigence® device. 8000 Neuro2a cells per well were seeded into two 8-well E-plates L8 and incubated for 24 h in a volume of 800 μL. For transfection toxicity studies 50 μL of reagent was added after the respective volume of culture medium was removed. Each 10 minutes the impedance/viability was measured.
The curves indicated in FIG. 2 represent the results of the following measurements: […]

Neuro2a cells [3] = experiment: Cell confluency as a measure of cell viability, determined optically (Cytosmart); assay type: cell-based, murine; conditions: saponin 24 μg/mL applied 24 h after seeding
Procedure: Murine neuroblastoma cells (Neuro2a cells, ATTC CCL-131™) were cultured in Dulbecco's Modified Eagle's Medium (DMEM), containing 1 g/L D-Glucose, 10% FBS and stable glutamine, at 37° C. and 5% CO2. These cells were then incubated with different saponins to test the cytotoxic effect of the saponins.
The cell confluency as a measure of cell viability was determined optically via cell number calculating algorithms (Cytosmart). The results are depicted in FIGS. 1A to 1D.
Buffer was used in each case as negative control.

Neuro2a cells [4] = experiment: Sapofection: transfection efficiency of GFP-encoding PD nanoplexes by flow cytometry; assay type: cell-based, murine
Procedure: The PD nanoplexes comprised DNA encoding for the green fluorescent protein (GFP). Therewith, the transfection efficiency could very easily be monitored by detecting the fluorescence of the cells that have been incubated with the corresponding DNA nanoparticles. The corresponding incubation period was chosen to be 48 hours in the present case.
20 mg of positively charged poly-lysine peptides without an integrin-receptor-targeting amino sequence were purchased from Genecust. The vector of p-EGFP-N3, coding for the green fluorescing protein (GFP), was obtained and propagated with DH5α— E. coli cells (1.645 mg/mL). StemMACS™ eGFP mRNA (20 μg) and GFP encoding minicircle DNA (Gene Bank Accession: U55761) were used as further nucleic acids. In order to conduct the transfection, nanoplexes were formulated as follows: The poly-lysine peptides (P) and the p-EGFP-N3 vector (D), were diluted in water (each 50 μL) and mixed thoroughly by fast pipetting in a ratio of 4:1. The nanoplexes were allowed to form in a 30-minute incubation step. Thereafter, the nanoplex suspension was diluted with OptiMEM to a total volume of 1 mL. The commercial transfection reagent Lipofectamin®3000 was formulated as described by the manufacturer.
Neuro2a cells (15,000 cells/well) were seeded in a 24-well-plate with a well volume of 400 μL culture medium and incubated for 24 h. The transfection reagents were formulated as described above and admixed with saponin solution, if required. The culture medium was replaced with the transfection medium with a final amount of 500 ng DNA/RNA. After a 48 h incubation period, the transfection medium was removed, the cells were trypsinized and transferred in a polystyrene tube for flow cytometry (Cytoflex). For each measurement 10,000 cells were acquired. The transfection efficiency was determined by the analysis software Cyflogic (by comparison of the sample plots with the negative control in terms of fluorescence).

Neuro2a cells [5] = assay type: cell-based, murine; conditions: 5 μg/mL
Text: To evaluate an enhancement of the transfection efficiency through AG1856 an optical based cytotoxicity assay after transfection with ribosome inactivating proteins (RIPs) was chosen.
As transgenes, 6-His-Agrostin RNA3 (Weise et al. 2020) and 6-His-Saporin 3 (Fabbrini et al. 1997) were cloned via BamHI and XbaI (Agrostin) and via SalI and NheI cleavage into pMC.CMV-MCS-SV40polyA (BioCat GmbH, Heidelberg, Germany) to produce minicircle with ZYCY10P3S2T (Kay et al. 2010). In addition to this, Saporin 3 and Gypsophillin S (Kokorin et al. 2019) were cloned into NTC9385R-BGHpA-Nanoplasmids and synthesized by Nature Technology Corporation (Lincoln, NB, USA) as previously described (Luke et al. 2011).
For 3 wells (96-Well-Plate), 300 ng plasmid DNA were diluted in 25 μL water and mixed with 25 μL of a solution with 2,100 ng Peptide Y (K16GACYGLPHKFCG) (GeneCust, Dudelage, Luxembourg). After an incubation period of 30 min, the nanoplexes were formed automatically. […]
The cytotoxic effect of the different constructs on the cells was measured by a CytoSMART® Omni, a camera-based system which took a photo of the bottom of each well every hour. The CytoSMART® Omni software calculated the confluence which is formed by living cells which are attached to the bottom. So, the cell growth could be monitored for 72 h. […]

Neuro2a cells [6] = experiment: Cell viability test by MTT assay; assay type: cell-based, murine; conditions: same concentration for all saponins (FIG. 3)
Text: The determination of mitochondrial activity due to the formation of formazan out of MTT served as biochemical method to measure cell viability.

| Structure (SMILES) | toxicity (cell viability) (Neuro2a cells [1]) | tolerance compared to other saponins (female NMRI nu/nu mice) | toxicity (impedance, real-time cell viability) (Neuro2a cells [2]; stepwise increase of AG1856 concentration, 2 to 24 μg/mL) | toxic effect (cell confluency as a measure of cell viability) (Neuro2a cells [3]) | transfection efficiency (Neuro2a cells [4]; GFP-plasmid nanoplexes, saponin increased from working concentration to 24 μg/mL (FIG. 5)) | transfection efficiency (Neuro2a cells [4]; PD nanoplexes (GFP DNA), saponin 2 μg/mL, 48 h incubation, versus Lipofectamin3000) | transfection efficiency (Neuro2a cells [4]; PD nanoplexes (GFP DNA), saponin 4 μg/mL or higher, 48 h incubation, versus Lipofectamin3000) | fluorescing cells (flow cytometric analysis) (Neuro2a cells [4]; transfection with GFP minicircle DNA performed with AG1856, n>3 (FIG. 6B)) | proliferation worse than the negative group (normalized confluence) (Neuro2a cells [5]; AG1856 only) | toxicity-mediated drop of viability (MTT) (Neuro2a cells [6]) | toxicity (impedance, real-time cell viability) (Neuro2a cells [2]; positive control, 4 μg/mL) | growth of the cells (normalized confluence) (Neuro2a cells [5]; positive control) |
| --- | --- | --- | --- | --- | --- | --- | --- | --- | --- | --- | --- | --- |
| CC(=O)OCC1OC(OC2C(O)C(OC3C(OC(=O)C45CCC(C)(C)CC4C4=CCC6C7(C)CCC(OC8OC(C(=O)O)C(O)C(OC9OCC(O)C(O)C9O)C8OC8OC(CO)C(O)C(O)C8O)C(C)(C=O)C7CCC6(C)C4(C)CC5O)OC(C)C(OC4OC(C)C(OC(C)=O)C(OC(C)=O)C4O)C3O)OC(C)C2OC2OCC(O)C(O)C2O)C(O)C(O)C1OC(C)=O (stereo not drawn) [AG1856] | no toxicity | superior tolerance | no significant toxicity increase | No distinct toxic effect | even increased efficiency | comparable to that of the gold standard Lipofectamin | even higher than that of Lipofectamin | Four cells out of five | 12% | could not be observed |  |  |
| COc1ccc(C[C@H](N)C(=O)N[C@H]2[C@@H](O)[C@H](n3cnc4c(N(C)C)ncnc43)O[C@@H]2CO)cc1 [puromycin, reference compound] |  |  |  |  |  |  |  |  |  |  | toxic | inhibit the growth of the cells instantly |
